# Assay results: patent US5756471A, “Use of a sophorolipid to provide free radical formation inhibiting activity or elastase inhibiting activity” (Institut Francais du Petrole, priority 1994, dated 1998)
# How the values were obtained:
# human fibroblasts = assay: Anti-radical effect on human fibroblasts (UVA); conditions: 200 μg/ml, in the absence of UVA
# elastase = assay: Anti-elastasic activity on human skin section
# Excerpt: The elastin substrate was that which exists in human skin.
# That result was expected and acted to validate the test.
# pancreatic elastase = pancreatic elastase (Sus scrofa, UniProt P00772); assay: Anti-elastasic activity, test in semi-solid medium (elastin in gelose); format: biochemical; conditions: 10 mM
# pancreatic elastase, sequence (P00772 27-266): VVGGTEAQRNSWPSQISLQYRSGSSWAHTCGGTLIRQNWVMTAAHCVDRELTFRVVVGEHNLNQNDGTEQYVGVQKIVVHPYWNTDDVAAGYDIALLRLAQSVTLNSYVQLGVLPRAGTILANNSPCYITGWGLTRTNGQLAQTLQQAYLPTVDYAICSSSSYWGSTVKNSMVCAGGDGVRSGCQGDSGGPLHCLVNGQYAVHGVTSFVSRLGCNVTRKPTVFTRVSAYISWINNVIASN
# Method: Principle: Inhibition of the degradation of elastin contained in gelose by elastase
# The anti-elastase activity of acid sophorolipids was evaluated using a semi-quantitative technique. The enzymatic solution, associated or otherwise with the test compound or with the reference molecule, was deposited in hollows in gelose containing the substrate, elastin.
# The enzyme diffused into the gelose and digested the elastin.
# This phenomenon was shown as a lightening of the gelose in the digestion zone, which zone was measured.
# [1] = Anti-radical activity (EPR method); conditions: hydroxyl radical EPR signal
# Method: The anti-radical effect of crude and acid sophorolipids was evaluated with respect to a free radical derived from oxygen and which is particularly important in pathology, namely the hydroxyl radical. Electron paramagnetic resonance spectrometry (EPR) was used. A molecule which traps free radicals reduces the signal. EPR measurements were carried out using a Brucker ECS106 spectrometer at ambient temperature. The hydroxyl radical (OH^.) was produced by photolysis (UVB) of hydrogen peroxide in aqueous solution. Mannitol was used as a reference molecule (positive control).
smiles,measurement,setting,value
"CC(=O)Oc1c(C)c(C)c2c(c1C)CCC(C)(CCC[C@H](C)CCC[C@H](C)CCCC(C)C)O2 (some centres unmarked) [Acetate of vitamin E, acetate of vitamin E]",toxicity for cells,human fibroblasts,not toxic
"[Cl][Hg][Cl] [HgCl2, mercury chloride]",Degradation of elastin fibres,elastase; 0.125 % (w/v),None
same,inhibition of elastase activity,elastase; reference molecule,dose-dependent manner
same,enzymatic inhibition,pancreatic elastase,total
same,Diameter of digestion zone,pancreatic elastase; 6 hours incubation,0 cm
same,Diameter of digestion zone,pancreatic elastase; 21 hours incubation,0 cm
OC[C@@H](O)[C@@H](O)[C@H](O)[C@H](O)CO [Mannitol],trapping activity,[1]; 10 mM,98%
same,% anti-radical protection,[1]; 0.182% (w/v),98%
